In ChEMBL document CHEMBL3751763, “Polyketide butenolide, diphenyl ether, and benzophenone derivatives from the fungus Aspergillus flavipes PJ03-11” (Bioorg Med Chem Lett, 2016):

Assay: Inhibition of Saccharomyces cerevisiae alpha-Glucosidase using p-nitrophenyl-alpha-D-glucopyranoside as substrate assessed as formation of para-nitrophenol preincubated for 5 mins followed by addition of substrate measured after 15 mins by microplate reader analysis

First: COc1cc(O)cc(C(=O)O)c1C(=O)c1c(O)c(Cl)c(C)c(Cl)c1O
Second: COC(=O)c1cc(O)cc(O)c1C(=O)c1c(O)c(Cl)c(C)c(Cl)c1O
The IC50 of the first is lower: 42 nM for the first, > 2000 nM for the second.

Going from `COc1cc(/C=C2\OC(=O)C(c3ccc(O)cc3)=C2O)ccc1O` to `COc1cc(/C=C2\OC(=O)C(c3ccc(O)cc3)=C2O)cc(OC)c1O`, the IC50 rises from 22 nM to 79 nM (3.6-fold).

Going from `COC(=O)[C@]1(Cc2ccc(O)c(CC=C(C)C)c2)OC(=O)C(OC)=C1c1ccc(O)c(O)c1` to `COC(=O)[C@]1(Cc2ccc(O)cc2)OC(=O)C(O)=C1c1ccc(O)cc1`, the IC50 rises from 16 nM to 126 nM (7.9-fold). The first is the more potent here.

`COC(=O)c1cc(O)cc(OC)c1Oc1cc(C)c(Cl)c(O)c1C(=O)O` and `COC(=O)c1cc(O)cc(OC)c1Oc1cc(C)c(Cl)c(O)c1C(=O)OC` [METHYL CHLOROASTERRATE] cannot be ordered by IC50: > 2000 nM for the first, > 2000 nM for the second.

Compared with `COC(=O)[C@]1(Cc2ccccc2)OC(=O)C(O)=C1c1ccccc1`, `O=C1O/C(=C\c2ccc(O)cc2)C(O)=C1c1ccc(O)cc1` [ASPULVINONE E] is 7-fold higher in IC50: 385 nM for the first, 2700 nM for the second.

`COc1cc(O)cc(C(=O)O)c1Oc1cc(C)cc(O)c1C(=O)O` and `COC(=O)c1cc(O)cc(OC)c1Oc1cc(C)cc(O)c1C(=O)O` [ASTERRIC ACID] cannot be ordered by IC50: > 2000 nM for the first, > 2000 nM for the second.

Going from `COC(=O)c1c(O)c(Cl)c(C)c(Cl)c1Oc1c(OC)cc(O)cc1C(=O)O` to `COC(=O)c1cc(O)cc(OC)c1Oc1c(Cl)c(C)c(Cl)c(O)c1C(=O)O` [GEODIN HYDRATE], the IC50 falls from 1480 nM to 91 nM (16-fold). The second is the more potent here.

Compared with `COC(=O)c1cc(O)cc(OC)c1Oc1cc(CO)cc(O)c1C(=O)O`, `COC(=O)c1cc(O)cc(O)c1C(=O)c1c(O)cc(C)cc1O` is lower in IC50: > 2000 nM for the first, 199 nM for the second. The second is the more potent here.

Going from `C[C@@H]1O[C@@H](O[C@@H]2[C@@H](O)[C@H](O)[C@H](O[C@H]3[C@H](O)[C@@H](O)C(O)O[C@@H]3CO)O[C@H]2CO)[C@@H](O)[C@H](O)[C@H]1N[C@H]1C=C(CO)[C@@H](O)[C@H](O)[C@H]1O` (some centres undefined) to `COC(=O)c1cc(O)cc(OC)c1Oc1c(Cl)c(C)c(Cl)c(O)c1C(=O)OC` [METYL DICHLOROASTERRATE], the IC50 rises from 685 nM to 1450 nM (2.1-fold). The first is the more potent here.

`O=c1c(O)c(-c2ccc(O)c(O)c2)oc2cc(O)cc(O)c12` [QUERCETIN] gave an IC50 of 15 nM.
